Like-named read-outs stand apart in the source and are kept apart here.
What was measured:
[1] = molecular target: T1, oxytocin receptors (OTR) (Homo sapiens, UniProt P30559); assay: Competition with 125I-OTA for OTR binding, whole-cell assay in human myometrial cells; details: for affinity for OTR binding: FIG. 1
T1 construct: endogenous in cells; host or cells: primary human term pregnant myometrial cells (from C-section tissue, collagenase dispersion)
T1 sequence (P30559 1-389): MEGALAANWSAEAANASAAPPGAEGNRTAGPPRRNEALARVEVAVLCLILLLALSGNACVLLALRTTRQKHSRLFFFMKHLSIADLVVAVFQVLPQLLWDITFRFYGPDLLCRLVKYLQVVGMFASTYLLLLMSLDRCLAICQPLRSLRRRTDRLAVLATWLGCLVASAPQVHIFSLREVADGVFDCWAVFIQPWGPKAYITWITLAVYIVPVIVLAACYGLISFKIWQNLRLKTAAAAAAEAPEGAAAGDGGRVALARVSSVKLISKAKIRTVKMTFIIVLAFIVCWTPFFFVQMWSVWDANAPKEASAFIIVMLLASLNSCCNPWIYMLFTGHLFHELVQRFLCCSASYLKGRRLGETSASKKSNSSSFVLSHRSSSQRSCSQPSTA
Procedure: FIG. 1. […] Percent inhibition of ^125I-OTA binding in human myometrial cells.
Determination of OTR ligand binding: OTA was monoiodinated as previously described (Hinko and Soloff, 1992). The specific activity of the iodinated peptide was 2000 Ci/mmol at the time of preparation. Whole cell assays for specific OTR binding activity were performed as described previously, using increasing concentrations of [^125I]OTA (Copland et al., 1999). The concentration of cellular DNA was determined in parallel, using the Hoechst dye H 33258 and a Hoefer DyNA Quant fluorometer according to the manufacturer's instructions.
The specific binding was determined by subtracting […]. Specific binding was expressed as a percent of total binding. All points were done in triplicate.

[2] = system: oxytocin induced uterine contractions; details: Thornton et al. 1999; cited from earlier work
[3] = system: oxytocin receptor (OTR) in human term myometrial cells; assay: Oxytocin-induced intracellular calcium transients in human term myometrial cells (Fura-2, single cells); format: cell-based; details: 0.001 μg/ml (2.2 nM) troglitazone, 1 min before 10 nM oxytocin; FIG. 3B
Procedure: FIGS. 3A-H. Change in intracellular cytoplasmic calcium levels in human term myometrial cells in culture. Each line represents the change in calcium for a single cell. Cells were either pretreated with troglitazone for one minute and then treated with oxytocin, bombesin (BBS), or bradykinin. These three agents cause an increase in intracellular calcium and cause uterine contraction under the correct circumstance. Cells were grown in 10% FBS, DMEM, penicillin/streptomycin resulting in elevated OTR levels. Cells were then put into KRH buffer containing Fura-2. The cells take up Fura-2 allowing for detection in changes of cytoplasmic levels of calcium. Cells were then treated as described for each figure. […] There is no effect of troglitazone at this concentration upon oxytocin-stimulated calcium transients.
Cell Culture Conditions: The proper protocols were followed in obtaining human term myometrium tissue from mother's delivering via C-section. Human term pregnant myometrial cells were isolated by collagenase dispersion and were grown in media consisting of Delbecco's modified eagles media (DMEM) supplemented with 10% fetal bovine serum (FBS), and 2% penicillin/streptomycin in a humidified tissue culture incubator at 37° C. under an atmosphere of 5% CO2 and 95% air. […]

[4] = FIG. 1, read-out: IC50, 125I-OTA binding to OTR

Row | SMILES | IC50 [1, 4] | affinity for OTR binding [1] | also measured
1 | Cc1c(C)c2c(c(C)c1OC(=O)CCC(=O)O)CC[C@@](C)(CCC[C@H](C)CCC[C@H](C)CCCC(C)C)O2 [Vitamin E succinate] | – | no affinity | –
2 | CC(=O)[C@H]1CC[C@H]2[C@@H]3CC[C@H]4CC(=O)CC[C@]4(C)[C@H]3CC[C@]12C [5β-dihydroprogesterone] | ~100 µM | – | concentration needed to inhibit oxytocin induced uterine contractions [2]: 100 µM
3 | Cc1c(C)c2c(c(C)c1O)CCC(C)(COc1ccc(CC3SC(=O)NC3=O)cc1)O2 (racemic) [troglitazone, ±5-[[4-[(3,4-dihydro-6-hydroxy-2,5,7,8-tetramethyl-2H-1-benzopyran-2-yl)methoxy]phenyl]methyl]-2,4-thiazolidinedione] | – | – | IC50 ([1]; FIG. 1, read-out: 50% inhibitory concentration (IC50), 125I-OTA binding to OTR): 0.0157 µM; effect on oxytocin-stimulated calcium transients [3]: no effect
4 | CCc1ccc(CCOc2ccc(CC3SC(=O)NC3=O)cc2)nc1 (centres unmarked) [pioglitazone] | ~10.6 µM | – | –

Second part, led by results:

Row | IC50 [1, 4] | affinity for OTR binding [1] | SMILES | also measured
5 | ~10.6 µM | – | CN(CCOc1ccc(CC2SC(=O)NC2=O)cc1)c1ccccn1 (centres unmarked) [BRL49653, rosiglitazone] | –
6 | – | no affinity | C[C@]12CC[C@@H]3c4ccc(O)cc4CC[C@H]3[C@@H]1CC[C@@H]2O [17β-estradiol] | –
